Measurements taken from US10906938B2, “Cell epitopes and combination of cell epitopes for use in the immunotherapy of myeloma and other cancers” (Immatics Biotechnologies GmbH, priority 2015, dated 2021).

Key:
[1] = tested on: MM.1S cells; assay: HLA class I ligand presentation upon carfilzomib treatment on MM.1S cells (LC-MS/MS); format: cell-based, human; set-up: key to modulation upon carfilzomib-treatment 24 #1 / modulation upon carfilzomib-treatment 24 #2 / modulation upon carfilzomib-treatment 24 #3 / modulation upon carfilzomib-treatment 48 #1 / modulation upon carfilzomib-treatment 48 #2 / modulation upon carfilzomib-treatment 48 #3: −1: significantly down-modulated; 0: not signifcant/not detected; 1: significantly up-modulated; conditions: MM.1S cells, vs mock-treated controls
Experimental: (§1) HLA class I and II molecules were isolated using standard immunoaffinity purification as described using the pan-HLA class I specific mAb W6/32, the pan-HLA class II specific mAb T039 and the HLA-DR specific mAB L243 (produced in house).
(§2) HLA ligand extracts were analyzed in 5 technical replicates as described previously. In brief, peptide samples were separated by nanoflow HPLC (RSLCnano, ThermoFisher) using a 50 μm×25 cm PepMap RSLC column (Thermo Fisher) and a gradient ranging from 2.4 to 32.0% acetonitrile over the course of 90 min. Eluting peptides were analyzed in an online coupled LTQ Orbitrap XL mass spectrometer (Thermo Fisher) using a top 5 CID (collision induced dissociation) fragmentation method.
(§3) Data processing was performed as described previously. In brief, the Mascot search engine (Mascot 2.2.04; Matrix Science, London, UK) was implemented to search the human proteome as comprised in the Swiss-Prot database (20,279 reviewed protein sequences, September 2013) without enzymatic restriction. Potential mutated HLA ligands were searched implementing a database containing the human proteome concatenated with proteins containing single amino acid variants (SAVs) listed in the COSMIC database (http://cancer.sanger.ac.uk/cosmic/). Only recurrent SAVs described in 2 or more samples of hematological origin were included. Oxidized methionine was allowed as a dynamic modification. The false discovery rate was estimated using the Percolator algorithm and set to 5%. Peptide lengths were limited to 8-12 amino acids for HLA class I and 12-25 amino acids for HLA class II. Protein inference was disabled, allowing for multiple protein annotations of peptides. HLA annotation was performed using SYFPEITHI [46] or an extended in-house database. Experimental validation of peptide identifications and HLA annotations was performed by mass spectrometric and functional characterization of synthetic peptides for a subset of peptides.
(§4) The inventors quantitatively assessed HLA class I ligand presentation during proteasome inhibitor therapy. Observed was a considerable plasticity of the HLA class I ligandome after treatment with carfilzomib with 17.9±1.1% of MM.1S ligands and 11.2±0.7% of U266 ligands (mean of three biological replicates ±s.d.) showing significant modulation (fold-change ≥4, Po0.01 after Benjamini-Hochberg correction) at t24 h compared with mock-treated controls. Briefly, Cultured MCLs (MM.1S and U266) and primary myeloma samples were incubated with carfilzomib (100 nM, Kyprolis®, available, e.g., from Onyx Pharmaceuticals, Inc.) as an example for a proteasome inhibitor for a 1-h period, followed by three washes in PBS (Gibco) and recultured for additional 24 or 48 h. Controls were incubated with vehicle control (glucose 5%) for 1 h, followed by identical washing and incubation for 24 or 48 h. Experiments were conducted in three biological replicates where indicated.

[2] = tested on: U266 cells; assay: HLA class I ligand presentation upon carfilzomib treatment on U266 cells (LC-MS/MS); format: cell-based, human; set-up: key to modulation upon carfilzomib-treatment 24 #1 / modulation upon carfilzomib-treatment 24 #2 / modulation upon carfilzomib-treatment 24 #3 / modulation upon carfilzomib-treatment 48 #1 / modulation upon carfilzomib-treatment 48 #2 / modulation upon carfilzomib-treatment 48 #3: −1: significantly down-modulated; 0: not signifcant/not detected; 1: significantly up-modulated; conditions: U266 cells, vs mock-treated controls; for modulation upon carfilzomib-treatment 24 #1 / modulation upon carfilzomib-treatment 24 #2 / modulation upon carfilzomib-treatment 24 #3: 24 h after carfilzomib treatment (100 nM, 1 h); for modulation upon carfilzomib-treatment 24 #1 / modulation upon carfilzomib-treatment 48 #1: biological replicate #1; for modulation upon carfilzomib-treatment 24 #2 / modulation upon carfilzomib-treatment 48 #2: biological replicate #2; for modulation upon carfilzomib-treatment 24 #3 / modulation upon carfilzomib-treatment 48 #3: biological replicate #3; for modulation upon carfilzomib-treatment 48 #1 / modulation upon carfilzomib-treatment 48 #2 / modulation upon carfilzomib-treatment 48 #3: 48 h after carfilzomib treatment (100 nM, 1 h)
Experimental: as §1, §2, §3, §4

| Sequence | modulation upon carfilzomib-treatment 24 #1 ([1]; 24 h after carfilzomib treatment (100 nM, 1 h), biological replicate #1) | modulation upon carfilzomib-treatment 24 #2 ([1]; 24 h after carfilzomib treatment (100 nM, 1 h), biological replicate #2) | modulation upon carfilzomib-treatment 24 #3 ([1]; 24 h after carfilzomib treatment (100 nM, 1 h), biological replicate #3) | modulation upon carfilzomib-treatment 48 #1 ([1]; 48 h after carfilzomib treatment (100 nM, 1 h), biological replicate #1) | modulation upon carfilzomib-treatment 48 #2 ([1]; 48 h after carfilzomib treatment (100 nM, 1 h), biological replicate #2) | modulation upon carfilzomib-treatment 48 #3 ([1]; 48 h after carfilzomib treatment (100 nM, 1 h), biological replicate #3) | modulation upon carfilzomib-treatment 24 #1 [2] | modulation upon carfilzomib-treatment 24 #2 [2] | modulation upon carfilzomib-treatment 24 #3 [2] | modulation upon carfilzomib-treatment 48 #1 [2] | modulation upon carfilzomib-treatment 48 #2 [2] | modulation upon carfilzomib-treatment 48 #3 [2] |
| --- | --- | --- | --- | --- | --- | --- | --- | --- | --- | --- | --- | --- |
| AFIQAGIFQEF | −1 | 0 | −1 | 0 | 0 | −1 | – | – | – | – | – | – |
| LLFPYILPPK | – | – | – | – | – | – | 0 | 0 | 0 | 0 | 0 | 0 |
| LPPPPHVPL | – | – | – | – | – | – | 0 | 0 | 0 | 0 | 0 | 0 |
| PELGPLPAL | – | – | – | – | – | – | 0 | 0 | 0 | 0 | 0 | 0 |
| REEGTPLTL | – | – | – | – | – | – | 0 | 0 | 0 | 0 | 0 | 0 |
| RPFHGWTSL | – | – | – | – | – | – | 0 | 0 | 0 | 0 | 0 | 0 |
| RPGPPTRPL | – | – | – | – | – | – | 0 | 0 | 0 | 0 | 0 | 0 |
| RPRPPVLSV | – | – | – | – | – | – | 0 | 0 | 0 | 0 | 0 | 0 |
| RQFWTRTKK | – | – | – | – | – | – | 0 | 0 | 0 | 0 | 0 | 0 |
| RVAKTNSLR | – | – | – | – | – | – | 0 | 0 | 0 | 0 | 0 | 0 |
| RVFPYSVFY | – | – | – | – | – | – | −1 | 0 | 0 | −1 | −1 | −1 |
| RVNKVIIGTK | – | – | – | – | – | – | 0 | 0 | 0 | 0 | 0 | 0 |
| SESLPVRTL | – | – | – | – | – | – | 0 | 0 | 0 | 0 | 0 | 0 |
| SPALKRLDL | – | – | – | – | – | – | 0 | 0 | 0 | 0 | 0 | 0 |
| SPRLSLLYL | – | – | – | – | – | – | 0 | 0 | 0 | 0 | 0 | 0 |
| SPRQALTDF | – | – | – | – | – | – | 0 | 0 | 0 | 0 | 0 | 0 |
| SPYLRPLTL | – | – | – | – | – | – | 0 | 0 | 0 | 0 | 0 | 0 |
| SRGDFVVEY | – | – | – | – | – | – | 0 | −1 | 0 | 0 | 0 | −1 |
| SVYSPVKKK | – | – | – | – | – | – | 0 | 0 | −1 | 0 | 0 | 0 |
| YLYITKVLK | – | – | – | – | – | – | 0 | 0 | 0 | 0 | 0 | 0 |
